Reference: PubChem BioAssay AID330 (DTP/NCI, 2004)
Values joined by “and” are separate entries in the source; they are usually repeats but may differ in a detail not shown here. Identical values can stand only once. Toxic doses and inconclusive results are not listed.

Test system: P388 leukemia ip, CD2F1 mice, survival T/C
Assay: NCI In Vivo Anticancer Drug Screen. Data for tumor model P388 Leukemia (intraperitoneal) in CD2F1 (CDF1) mice
Settings: endpoint: median survival time, higher = longer survival
Summary of the method: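 Mice carrying the transplanted tumor received test compound or vehicle. Survival was recorded in each group, and the value is the treated-group measurement divided by that of the vehicle-treated control group.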

[1] = dose: 30.0 mg/kg/injection, schedule: Q01DX005 (ip), vehicle: Klucel (hydroxypropylcellulose) (HPC)
[2] = dose: 25.0 mg/kg/injection, schedule: Q01DX009 (ip), vehicle: other
[3] = dose: 50.0 mg/kg/injection, schedule: Q01DX009 (ip), vehicle: other
[4] = dose: 100.0 mg/kg/injection, schedule: Q01DX009 (ip), vehicle: other

CC(=O)Nc1ccc(Nc2nc(Cl)nc(Nc3ccc(NC(C)=O)cc3)n2)cc1
T/C [1]: 100 % of control | T/C (dose: 60.0 mg/kg/injection, schedule: Q01DX005 (ip), vehicle: Klucel (hydroxypropylcellulose) (HPC)): 89 % of control and 97 % of control | T/C (dose: 120.0 mg/kg/injection, schedule: Q01DX005 (ip), vehicle: Klucel (hydroxypropylcellulose) (HPC)): 93 % of control | T/C (dose: 240.0 mg/kg/injection, schedule: Q01DX005 (ip), vehicle: Klucel (hydroxypropylcellulose) (HPC)): 89 % of control

COc1ccc(CC(N)C(=O)OCc2ccccc2)cc1N(CCCl)CCCl (stereo not given)
T/C (dose: 1.56 mg/kg/injection, schedule: Q01DX009 (ip), vehicle: suspension in saline): 97 % of control | T/C (dose: 3.12 mg/kg/injection, schedule: Q01DX009 (ip), vehicle: suspension in saline): 95 % of control | T/C (dose: 6.25 mg/kg/injection, schedule: Q01DX009 (ip), vehicle: suspension in saline): 100 % of control

CC/C(=C(/CC)c1ccc(O)c(N(CCCl)CCCl)c1)c1ccc(O)c(N(CCCl)CCCl)c1
T/C (dose: 7.5 mg/kg/injection, schedule: Q01DX009 (ip), vehicle: saline): 106 % of control | T/C (dose: 15.0 mg/kg/injection, schedule: Q01DX009 (ip), vehicle: saline): 89 % of control | T/C (dose: 30.0 mg/kg/injection, schedule: Q01DX009 (ip), vehicle: saline): 105 % of control

NC(=S)n1nc(-c2ccccc2)c(N=Nc2cc(Cl)ccc2Cl)c1-c1ccccc1
T/C (dose: 100.0 mg/kg/injection, schedule: Q04DX002 (ip), vehicle: saline with Tween-80): 89 % of control | T/C (dose: 200.0 mg/kg/injection, schedule: Q04DX002 (ip), vehicle: saline with Tween-80): 90 % of control | T/C (dose: 400.0 mg/kg/injection, schedule: Q04DX002 (ip), vehicle: saline with Tween-80): 110 % of control

C1=CC2C3CSCC3C1C1CC21 (stereo not given)
T/C (dose: 100.0 mg/kg/injection, schedule: Q04DX003 (ip), vehicle: saline): 105 % of control | T/C (dose: 200.0 mg/kg/injection, schedule: Q04DX003 (ip), vehicle: saline): 103 % of control | T/C (dose: 400.0 mg/kg/injection, schedule: Q04DX003 (ip), vehicle: saline): 102 % of control

c1ccc(Cc2[nH]nc(-c3n[nH]c(Cc4ccccc4)c3-c3ccccc3)c2-c2ccccc2)cc1
T/C (dose: 60.0 mg/kg/injection, schedule: Q01DX005 (ip), vehicle: saline with Tween-80): 101 % of control | T/C (dose: 120.0 mg/kg/injection, schedule: Q01DX005 (ip), vehicle: saline with Tween-80): 103 % of control | T/C (dose: 240.0 mg/kg/injection, schedule: Q01DX005 (ip), vehicle: saline with Tween-80): 102 % of control

CN=C(c1ccc(NC(=O)c2cccc(C(=O)Nc3ccc(C(=NC)N(C)C4CCCCC4)cc3)c2)cc1)N(C)C1CCCCC1
T/C (dose: 1.56 mg/kg/injection, schedule: Q01DX005 (ip), vehicle: Klucel (hydroxypropylcellulose) (HPC)): 104 % of control | T/C (dose: 3.12 mg/kg/injection, schedule: Q01DX005 (ip), vehicle: Klucel (hydroxypropylcellulose) (HPC)): 102 % of control

O=[N+]([O-])c1ccc(S(=O)C2CCCCC2Cl)c([N+](=O)[O-])c1 (stereo not given)
T/C (dose: 100.0 mg/kg/injection, schedule: Q04DX002 (ip), vehicle: Klucel (hydroxypropylcellulose) (HPC)): 110 % of control | T/C (dose: 200.0 mg/kg/injection, schedule: Q04DX002 (ip), vehicle: Klucel (hydroxypropylcellulose) (HPC)): 113 % of control

COc1ccc(CCN2C(=O)CC(CC3=NCCc4cc(OC)c(OC)cc43)CC2=O)cc1OC
T/C (dose: 50.0 mg/kg/injection, schedule: Q01DX005 (ip), vehicle: saline): 103 % of control | T/C (dose: 100.0 mg/kg/injection, schedule: Q01DX005 (ip), vehicle: saline): 95 % of control

C=C1C(=O)OC2/C=C(/C)C3OC3/C=C(/C(=O)OC)C(OC(C)=O)C(OC(=O)C3(C)OC3C)C12 (stereo not given)
T/C (dose: 1.5 mg/kg/injection, schedule: Q01DX009 (ip), vehicle: Klucel (hydroxypropylcellulose) (HPC)): 124 % of control | T/C (dose: 12.0 mg/kg/injection, schedule: Q01DX009 (ip), vehicle: Klucel (hydroxypropylcellulose) (HPC)): 86 % of control

CC1C/C(=C2/NC3CCCCC3NC2=O)C(=O)O1 (stereo not given)
T/C (dose: 6.25 mg/kg/injection, schedule: Q01DX009 (ip), vehicle: saline with Tween-80): 100 % of control | T/C (dose: 12.5 mg/kg/injection, schedule: Q01DX009 (ip), vehicle: saline with Tween-80): 95 % of control | T/C (dose: 25.0 mg/kg/injection, schedule: Q01DX009 (ip), vehicle: saline with Tween-80): 92 % of control

CSC(=S)N/N=C/c1cccn1C
T/C (dose: 50.0 mg/kg/injection, schedule: Q01DX009 (ip), vehicle: saline with Tween-80): 100 % of control | T/C (dose: 100.0 mg/kg/injection, schedule: Q01DX009 (ip), vehicle: saline with Tween-80): 91 % of control | T/C (dose: 200.0 mg/kg/injection, schedule: Q01DX009 (ip), vehicle: saline with Tween-80): 115 % of control

[Br][Rh][Br].[NH-]c1nc2ccc(Br)cc2s1.[NH-]c1nc2ccc(Br)cc2s1.[NH-]c1nc2ccc(Br)cc2s1.[NH-]c1nc2ccc(Br)cc2s1
T/C (dose: 50.0 mg/kg/injection, schedule: Q01DX009 (ip), vehicle: saline): 100 % of control | T/C (dose: 100.0 mg/kg/injection, schedule: Q01DX009 (ip), vehicle: saline): 98 % of control | T/C (dose: 200.0 mg/kg/injection, schedule: Q01DX009 (ip), vehicle: saline): 100 % of control

O=C1C2C3(CCl)C1C23CCl (stereo not given)
T/C (dose: 7.5 mg/kg/injection, schedule: Q01DX005 (ip), vehicle: Klucel (hydroxypropylcellulose) (HPC)): 108 % of control | T/C (dose: 15.0 mg/kg/injection, schedule: Q01DX005 (ip), vehicle: Klucel (hydroxypropylcellulose) (HPC)): 104 % of control | T/C [1]: 108 % of control

c1ccc(SNSc2ccccc2)cc1
T/C (dose: 100.0 mg/kg/injection, schedule: Q04DX003 (ip), vehicle: Klucel (hydroxypropylcellulose) (HPC)): 103 % of control | T/C (dose: 200.0 mg/kg/injection, schedule: Q04DX003 (ip), vehicle: Klucel (hydroxypropylcellulose) (HPC)): 101 % of control | T/C (dose: 400.0 mg/kg/injection, schedule: Q04DX003 (ip), vehicle: Klucel (hydroxypropylcellulose) (HPC)): 106 % of control

CCN(CC)CCSc1c2ccccc2nc2ccccc12
T/C (dose: 3.75 mg/kg/injection, schedule: Q01DX005 (ip), vehicle: saline with Tween-80): 110 % of control | T/C (dose: 7.5 mg/kg/injection, schedule: Q01DX005 (ip), vehicle: saline with Tween-80): 114 % of control | T/C (dose: 15.0 mg/kg/injection, schedule: Q01DX005 (ip), vehicle: saline with Tween-80): 107 % of control

COc1c2occc2c(NC(=O)C(Cl)Cl)c2ccc(=O)oc12
T/C (dose: 2.5 mg/kg/injection, schedule: Q04DX002 (ip), vehicle: saline with Tween-80): 101 % of control | T/C (dose: 5.0 mg/kg/injection, schedule: Q04DX002 (ip), vehicle: saline with Tween-80): 100 % of control | T/C (dose: 10.0 mg/kg/injection, schedule: Q04DX002 (ip), vehicle: saline with Tween-80): 99 % of control

CCCCCCCCCCCCCCCCS(=O)CC(O)COC(=O)c1ccc(C(=O)OCC(O)CS(=O)CCCCCCCCCCCCCCCC)cc1 (stereo not given)
T/C [2]: 104 % of control | T/C [3]: 114 % of control | T/C [4]: 122 % of control

O=C(CC1NCCCC1O)Cn1cnc2ccccc2c1=O (stereo not given)
T/C (dose: 1.0 mg/kg/injection, schedule: Q01DX009 (ip), vehicle: distilled water + alcohol): 116 % of control | T/C (dose: 2.0 mg/kg/injection, schedule: Q01DX009 (ip), vehicle: distilled water + alcohol): 107 % of control | T/C (dose: 4.0 mg/kg/injection, schedule: Q01DX009 (ip), vehicle: distilled water + alcohol): 107 % of control

CC(C)(O)c1cc(=O)n(Cc2ccccc2)[nH]1
T/C (dose: 50.0 mg/kg/injection, schedule: Q01DX005 (ip), vehicle: Klucel (hydroxypropylcellulose) (HPC)): 106 % of control | T/C (dose: 100.0 mg/kg/injection, schedule: Q01DX005 (ip), vehicle: Klucel (hydroxypropylcellulose) (HPC)): 109 % of control | T/C (dose: 200.0 mg/kg/injection, schedule: Q01DX005 (ip), vehicle: Klucel (hydroxypropylcellulose) (HPC)): 108 % of control

CC(=O)OC1CSC(OC(C)=O)C(OC(C)=O)C1[N+](=O)[O-] (stereo not given)
T/C (dose: 100.0 mg/kg/injection, schedule: Q04DX002 (ip), vehicle: saline): 99 % of control | T/C (dose: 200.0 mg/kg/injection, schedule: Q04DX002 (ip), vehicle: saline): 115 % of control

CN1CC2(C)CCCC(C)(C1)C2O (stereo not given)
T/C (dose: 50.0 mg/kg/injection, schedule: Q01DX005 (ip), vehicle: saline with Tween-80): 106 % of control | T/C (dose: 100.0 mg/kg/injection, schedule: Q01DX005 (ip), vehicle: saline with Tween-80): 98 % of control

CCC[CH2][Sn]1([CH2]CCC)[O]OC(c2ccccc2)[O]1 (stereo not given)
T/C (dose: 4.5 mg/kg/injection, schedule: Q01DX009 (ip), vehicle: other): 150 % of control | T/C (dose: 625.0 micrograms/kg/injection, schedule: Q04DX003 (ip), vehicle: saline with Tween-80): 115 % of control | T/C (dose: 1250.0 micrograms/kg/injection, schedule: Q04DX003 (ip), vehicle: saline with Tween-80): 120 % of control | T/C (dose: 5000.0 micrograms/kg/injection, schedule: Q04DX003 (ip), vehicle: saline with Tween-80): 165 % of control

CC1(C)CC(C)(OC(=O)c2ccc(Cl)cc2)[N+]([O-])=N1 (stereo not given)
T/C (dose: 12.5 mg/kg/injection, schedule: Q01DX009 (ip), vehicle: other): 98 % of control | T/C [2]: 98 % of control | T/C [3]: 106 % of control | T/C [4]: 89 % of control | T/C (dose: 200.0 mg/kg/injection, schedule: Q01DX009 (ip), vehicle: other): 89 % of control
